The text below walks through data of EP0121013A1, “Oral compositions” (UNILEVER PLC, priority 1983, dated 1984).

Data set [1] has as its system Lactobacillus casei. The experiment in a line: Inhibition of bacterial growth (optical density after 24 hours). It counts as cell-based. Conditions: L.casei; for IC50: 24 hours at 37°C, means of triplicate experiments, read-out: ID/50 (the source's name); for ID/50: recalculated as ppm F, 1440 min. The text has this: (§1) Cariogenic Bacteria used for testing the effect of Sn(^NH4)2F6 were Streptococcus mutans (strains coded 6715 and OMZ-176), Streptococcus sanguis (strains coded 10556 and 10557), Streptococcus salivarius (strains coded SS4 and H257), and Lactobacillus casei. All of the above organisms were maintained as lyophilised cultures until the time for use.
(§2) It is generally agreed that oral bacteria are responsible for tooth decay. Therefore, a reduction of the cariogenic flora usually results in a decrease in caries formation. The inhibitory action of the test compounds was. determined by adding each salt, at known concentrations, to a culture of cariogenic bacteria. After 24 hours at 37°C bacterial growth was monitored as a change in optical density. A dose response curve (concentration of salt vs. growth) for each compound against each bacterial isolate was plotted in order to obtain the concentration of test agent which would cause a 50% inhibition in growth (ID/50). This is a useful ranking index since it is not always possible to obtain complete inhibition with weak germicidal agents. Only those compounds which were able to elicit an ID/50 response were considered as inhibitory agents.
(§3) The medium used for bacterial growth experiments was Trypticase Soy Broth (B.B.L.: Baltimore Biological Labs., Baltimore, MD) supplemented with 0.1% Tween 80 (the word Tween is a trade mark) and 0.05% sodium thioglycollate. The test organisms, as lyophilised cells, were grown overnight in 50 mls of growth medium in a vacuum desiccator with an atmosphere of 97% CO /3% H2 at 35°C. These cultures were then used at a 0.2% inoculum to prepare second stage seed flasks. The test media (10ml) consisting of growth medium plus the potential inhibitors, contained in 16 x 120 mm screw top test tubes, were inoculated with the second stage seed cultures to given an absorbancy reading of 0.05. Immediately after inoculation the cultures were incubated for 24 hours under anaerobic conditions.
(§4) The growth medium was sterilised by autoclaving, whereas the potential inhibitors (as aqueous solutions) were sterilised by filtering each solution separately through a Millipore membrane (0.22 /u).
(§5) Absorbance at 600 nm versus a medium control was used as a measure of growth on a Beckman Model B spectrophotometer. All absorbancy readings were determined in 16 mm x 120 mm Kimax test tubes. This instrument was linear to 0.60 OD units; thus, all cultures displaying values above this range were diluted with the control, accordingly.

Data set [2] deals with Streptococcus mutans 6715. The data set is described as above. It is filed as cell-based. Conditions: S.mutans 6715; recalculated as ppm F; 1440 min.
Excerpt: as §1, §2, §3, §4, §5

Data set [3] relates to Streptococcus mutans OMZ-176. The data set is described as above. It counts as cell-based. The following applies: S.mutans OMZ-176; for IC50: 24 hours at 37°C, means of triplicate experiments, read-out: ID/50 (the source's name); for ID/50: recalculated as ppm F, 1440 min.
Excerpt: as §1, §2, §3, §4, §5

The subject of data set [4] is Streptococcus salivarius H257. The description is as above. It is filed as cell-based. Conditions: S.salivarius H-257; for IC50: 24 hours at 37°C, means of triplicate experiments, read-out: ID/50 (the source's name); for ID/50: recalculated as ppm F, 1440 min.
Excerpt: as §1, §2, §3, §4, §5

For data set [5], the system named is Streptococcus salivarius SS4. The description is as above. It counts as cell-based. The following applies: S.salivarius SS4; for IC50: 24 hours at 37°C, means of triplicate experiments, read-out: ID/50 (the source's name); for ID/50: recalculated as ppm F, 1440 min.
Excerpt: as §1, §2, §3, §4, §5

Data set [6] relates to Streptococcus sanguis 10556. The description is as above. It is filed as cell-based. The following applies: S.sanguis 10556; for IC50: 24 hours at 37°C, means of triplicate experiments, read-out: ID/50 (the source's name); for ID/50: recalculated as ppm F, 1440 min.
Excerpt: as §1, §2, §3, §4, §5

The test system of data set [7] is Streptococcus sanguis 10557. The description is as above. It is filed as cell-based. The following applies: S.sanguis 10557; for IC50: 24 hours at 37°C, means of triplicate experiments, read-out: ID/50 (the source's name); for ID/50: recalculated as ppm F, 1440 min.
Excerpt: as §1, §2, §3, §4, §5

Data set [8] in a line: pH of aqueous solution. It is filed as physicochemical. The text has this:
An aqueous solution of Sn(NH4)2F6 has a ^pH of about 3.8 as compared to a pH of 3.0 for SnF2. This higher pH characteristic eliminates some of the formulation problems encountered with the strong acid effect of SnF2. The preferred pH of oral compositions containing ^Sn(NH4)2F6 is from 3.5 to 8.0. A 1000 ppm F^- solution of Sn(NH4)2F6 was stable.

Data set [9] in a line: Stability of aqueous solution on standing (haze / turbidity). The following applies: 1000 ppm F- solution of Sn(NH4)2F6 on standing several weeks; SnF2 solution after 24 hours at room temperature. It counts as physicochemical.
The nature of data set [10]: Ionisation: release of available F. It is filed as physicochemical. The text has this: The corresponding values for Na2SnF6 are 73% and 38%, respectively. Thus Na2SnF6 is less ionised than Sn(NH4)2F6.
The conditions of data set [11]: applied topically to the teeth; Caries Res. 3, 315-325, 1969; cited from earlier work.
Setting [12] is: concentration equivalent to 1000 ppm.
Setting [13] is: concentration equivalent to 2500 ppm.

On to `[F][Sn][F]` [SnF2], for which the IC50 in data set [1] was found to be 2.97 mM; in data set [3], 2.28 mM; in data set [4], 740 µM; in data set [5] it was 2.45 mM; in data set [6], 440 µM; in data set [7], 840 µM. For the same compound, the ID/50 is reported as 113 ppm F in data set [1]; 56 ppm F in data set [2]; 87 ppm F in [3]; 29 ppm F in data set [4]; 93 ppm F in data set [5]; 17 ppm F in data set [6]. Besides, in data set [7], the ID/50 is 32 ppm F. In [8], this compound registered a pH of 3.0. In data set [9], the stability of solution result was “developed turbidity”. The entries for the “released available F” value in data set [10] (setting [12]) and in data set [10] (setting [13]) were 80% and 45%, respectively.
On to `N.N.[F-].[F-].[F-].[F-].[F-].[F-].[Sn]` [Sn(NH4)2F6, stannic ammonium fluoride], for which the IC50 in data set [1] is 2.53 mM; in data set [3] it was 1.43 mM; in [4] it was 400 µM; in data set [5] it was 1.65 mM; in data set [6] it was 220 µM; in [7], 390 µM. Further, the ID/50 in [1] was 288 ppm F; in data set [2] it was 137 ppm F; in data set [3] it was 163 ppm F; in data set [4], 46 ppm F; in [5], 188 ppm F; in data set [6] it was 25 ppm F. Also, the ID/50 in data set [7] is 45 ppm F. Moreover, the pH entry in data set [8] was “about 3.8”. Moreover, in [9], the stability of solution result is on record as “stable”. Further, the “released available F” value in [10] (setting [12]) and in [10] (setting [13]) was “the same ionisation values as SnF2” in each case.
Regarding `[F-].[F-].[F-].[F-].[F-].[F-].[Na+].[Na+].[Sn+4]` [Na2SnF6, sodium hexafluorostannate], the “released available F” value in data set [10] (setting [12]) worked out at 73%; in data set [10] (setting [13]), 38%. The caries inhibiting effect result in data set [11] is given as “has a caries inhibiting effect”.
For the compound `[F-].[Na+]` [NaF], the IC50 was more than 12 mM in [1]; 16.3 mM in data set [3]; 3770 µM in data set [4]; 13.4 mM in data set [5]; 1180 µM in data set [6]; 1820 µM in [7]. The ID/50 in [1] is 352 ppm F; in data set [2] it was 138 ppm F; in data set [3], 309 ppm F; in [4], 72 ppm F; in data set [5], 255 ppm F; in data set [6], 22 ppm F. For the same compound, the ID/50 in data set [7] is recorded as 35 ppm F.
Take `[Cl][Sn][Cl]` [SnCl2]: the IC50 in data set [1] is 3 to 6 mM.
